From patent US12583884B2, “3beta-(benzyloxy)-17alpha-methyl-pregn-5-en-20-one for use in the treatment of cognitive disorders” (AELIS FARMA, priority 2018, dated 2026)
Like-named read-outs stand apart in the source and are kept apart here.

Tests used:
[1] = test system: Adrenergic alpha1; test: CEREP binding profile: alpha1; details: 10 μM
Source text: (§1) The CEREP High-throughput profile consists of a broad collection of 80 transmembrane and soluble receptors, ion channels and G-Protein coupled receptors.

[2] = test system: Adrenergic alpha2; test: CEREP binding profile: alpha2; details: 10 μM
Source text: as §1

[3] = target: T1, Adrenergic beta1 (Homo sapiens, UniProt P08588); test: CEREP binding profile: beta1
T1 construct: CEREP
T1 sequence (P08588 whole entry): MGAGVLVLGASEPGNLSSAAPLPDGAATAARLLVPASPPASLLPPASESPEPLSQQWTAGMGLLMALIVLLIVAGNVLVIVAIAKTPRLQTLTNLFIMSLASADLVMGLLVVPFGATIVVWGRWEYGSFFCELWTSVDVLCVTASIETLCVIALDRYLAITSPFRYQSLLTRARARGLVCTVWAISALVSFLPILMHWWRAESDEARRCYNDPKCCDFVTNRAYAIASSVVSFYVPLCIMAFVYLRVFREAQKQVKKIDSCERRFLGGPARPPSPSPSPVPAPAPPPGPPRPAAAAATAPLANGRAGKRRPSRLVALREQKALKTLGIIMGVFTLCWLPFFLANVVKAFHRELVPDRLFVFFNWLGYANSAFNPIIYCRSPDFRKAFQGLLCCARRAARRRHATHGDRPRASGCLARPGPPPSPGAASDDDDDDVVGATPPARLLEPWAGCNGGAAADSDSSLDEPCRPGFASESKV
Source text: as §1

[4] = target: T2, Angiotensin-II AT1 (Homo sapiens, UniProt P30556); test: CEREP binding profile: AT1
T2 construct: CEREP
T2 sequence (P30556 whole entry): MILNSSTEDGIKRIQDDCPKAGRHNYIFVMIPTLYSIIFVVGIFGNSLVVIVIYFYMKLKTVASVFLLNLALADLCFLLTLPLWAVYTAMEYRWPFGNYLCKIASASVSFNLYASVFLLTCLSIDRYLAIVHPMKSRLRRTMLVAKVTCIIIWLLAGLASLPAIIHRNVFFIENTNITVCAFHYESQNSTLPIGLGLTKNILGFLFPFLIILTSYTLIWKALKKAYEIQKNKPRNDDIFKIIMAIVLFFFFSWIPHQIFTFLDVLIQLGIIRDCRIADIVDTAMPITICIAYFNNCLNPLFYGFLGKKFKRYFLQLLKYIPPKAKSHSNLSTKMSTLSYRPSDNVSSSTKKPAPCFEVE
Source text: as §1

[5] = target: T3, Angiotensin-II AT2 (Homo sapiens, UniProt P50052); test: CEREP binding profile: AT2
T3 construct: CEREP
Source text: as §1

[6] = test system: Bombesin BB; test: CEREP binding profile: BB; details: 10 μM
Source text: as §1

[7] = target: T4, Bradykinin B2 (Homo sapiens, UniProt P30411); test: CEREP binding profile: B2
T4 construct: CEREP
Source text: as §1

[8] = target: T5, Calcitonin gene-related CGRP (Homo sapiens, UniProt O60894+Q16602); test: CEREP binding profile: CGRP
T5 construct: CEREP
Source text: as §1

[9] = target: T6, Chemokines CXCR2 (Homo sapiens, UniProt P25025); test: CEREP binding profile: CXCR2
T6 construct: CEREP
Source text: as §1

[10] = target: T7, Chemokines CCR1 (Homo sapiens, UniProt P32246); test: CEREP binding profile: CCR1
T7 construct: CEREP
Source text: as §1

[11] = target: T8, Cholecystokinin CCK1 (CCKA) (Homo sapiens, UniProt P32238); test: CEREP binding profile: CCK1
T8 construct: CEREP
Source text: as §1

[12] = target: T9, Cholecystokinin CCK2 (CCKB) (Homo sapiens, UniProt P32239); test: CEREP binding profile: CCK2
T9 construct: CEREP
T9 sequence (P32239 whole entry): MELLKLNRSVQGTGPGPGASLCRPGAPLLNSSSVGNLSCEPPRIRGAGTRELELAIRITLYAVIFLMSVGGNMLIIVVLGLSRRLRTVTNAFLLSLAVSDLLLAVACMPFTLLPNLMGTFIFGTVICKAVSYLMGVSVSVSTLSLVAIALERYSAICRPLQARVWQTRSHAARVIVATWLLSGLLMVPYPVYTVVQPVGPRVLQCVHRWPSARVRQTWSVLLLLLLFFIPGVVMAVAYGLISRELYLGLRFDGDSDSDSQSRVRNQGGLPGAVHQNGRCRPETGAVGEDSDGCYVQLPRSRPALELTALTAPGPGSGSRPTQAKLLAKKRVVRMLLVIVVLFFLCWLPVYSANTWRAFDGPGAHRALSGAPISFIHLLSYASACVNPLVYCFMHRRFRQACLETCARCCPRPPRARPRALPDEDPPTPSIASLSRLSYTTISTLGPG
Source text: as §1

[13] = target: T10, Dopamine D1 (Homo sapiens, UniProt P21728); test: CEREP binding profile: D1
T10 construct: CEREP
Source text: as §1

[14] = target: T11, Dopamine D3 (Homo sapiens, UniProt P35462); test: CEREP binding profile: D3
T11 construct: CEREP
T11 sequence (P35462 whole entry): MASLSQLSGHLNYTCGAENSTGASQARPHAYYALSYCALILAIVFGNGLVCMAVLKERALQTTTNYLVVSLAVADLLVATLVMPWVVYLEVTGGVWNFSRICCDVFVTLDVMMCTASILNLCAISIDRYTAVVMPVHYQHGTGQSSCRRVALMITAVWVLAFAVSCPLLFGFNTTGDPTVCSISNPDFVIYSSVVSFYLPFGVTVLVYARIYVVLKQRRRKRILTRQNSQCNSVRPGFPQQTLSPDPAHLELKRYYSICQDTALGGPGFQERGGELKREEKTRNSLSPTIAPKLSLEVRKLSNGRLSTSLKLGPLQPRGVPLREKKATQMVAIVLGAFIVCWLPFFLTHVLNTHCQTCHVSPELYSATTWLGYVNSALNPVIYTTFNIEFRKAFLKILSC
Source text: as §1

[15] = target: T12, Endothelin ETA (Homo sapiens, UniProt P25101); test: CEREP binding profile: ETA
T12 construct: CEREP
Source text: as §1

[16] = target: Galanin GAL1 (Homo sapiens, UniProt P47211); test: CEREP binding profile: GAL1
Source text: as §1

[17] = target: Melanocortin MC4 (Homo sapiens, UniProt P32245); test: CEREP binding profile: MC4
Chain of Melanocortin MC4 (P32245 whole entry): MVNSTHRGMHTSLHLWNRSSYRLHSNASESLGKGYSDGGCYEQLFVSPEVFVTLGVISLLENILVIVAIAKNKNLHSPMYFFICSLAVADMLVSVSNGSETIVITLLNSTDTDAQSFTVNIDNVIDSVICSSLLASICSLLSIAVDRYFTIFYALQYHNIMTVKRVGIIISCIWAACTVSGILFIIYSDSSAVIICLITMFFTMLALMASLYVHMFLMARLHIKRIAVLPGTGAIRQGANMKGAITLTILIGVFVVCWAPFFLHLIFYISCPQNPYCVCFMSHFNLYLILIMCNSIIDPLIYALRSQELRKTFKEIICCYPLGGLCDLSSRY
Source text: as §1

[18] = target: Muscarinic M2 (Homo sapiens, UniProt P08172); test: CEREP binding profile: M2
Chain of Muscarinic M2 (P08172 whole entry): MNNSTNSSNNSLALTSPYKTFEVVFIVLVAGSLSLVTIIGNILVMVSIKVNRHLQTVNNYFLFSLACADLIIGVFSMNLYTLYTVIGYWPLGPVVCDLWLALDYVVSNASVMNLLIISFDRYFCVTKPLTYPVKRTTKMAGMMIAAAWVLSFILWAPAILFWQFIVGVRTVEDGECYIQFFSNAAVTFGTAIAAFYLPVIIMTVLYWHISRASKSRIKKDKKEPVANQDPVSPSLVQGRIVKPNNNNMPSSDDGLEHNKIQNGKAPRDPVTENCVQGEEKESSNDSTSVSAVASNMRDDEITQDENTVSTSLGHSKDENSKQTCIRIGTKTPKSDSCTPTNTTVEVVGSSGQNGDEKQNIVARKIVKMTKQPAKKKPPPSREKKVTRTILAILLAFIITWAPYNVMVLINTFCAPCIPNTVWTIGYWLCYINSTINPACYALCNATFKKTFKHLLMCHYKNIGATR
Source text: as §1

[19] = target: Muscarinic M5 (Homo sapiens, UniProt P08912); test: CEREP binding profile: M5
Source text: as §1

[20] = target: Neurokinin NK2 (Homo sapiens, UniProt P21452); test: CEREP binding profile: NK2
Chain of Neurokinin NK2 (P21452 whole entry): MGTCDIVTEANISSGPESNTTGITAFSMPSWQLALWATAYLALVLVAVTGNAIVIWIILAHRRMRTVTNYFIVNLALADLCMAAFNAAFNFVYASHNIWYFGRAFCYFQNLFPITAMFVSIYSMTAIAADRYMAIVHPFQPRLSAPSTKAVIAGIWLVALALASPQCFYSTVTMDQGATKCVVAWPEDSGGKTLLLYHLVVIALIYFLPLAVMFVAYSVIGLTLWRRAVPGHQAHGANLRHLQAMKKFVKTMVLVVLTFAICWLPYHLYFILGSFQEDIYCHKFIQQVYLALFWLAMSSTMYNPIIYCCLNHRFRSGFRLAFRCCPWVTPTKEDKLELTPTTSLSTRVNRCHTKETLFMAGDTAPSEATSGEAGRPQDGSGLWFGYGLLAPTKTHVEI
Source text: as §1

[21] = target: Neuropetide Y Y2 (Homo sapiens, UniProt P49146); test: CEREP binding profile: Y2
Chain of Neuropetide Y Y2 (P49146 whole entry): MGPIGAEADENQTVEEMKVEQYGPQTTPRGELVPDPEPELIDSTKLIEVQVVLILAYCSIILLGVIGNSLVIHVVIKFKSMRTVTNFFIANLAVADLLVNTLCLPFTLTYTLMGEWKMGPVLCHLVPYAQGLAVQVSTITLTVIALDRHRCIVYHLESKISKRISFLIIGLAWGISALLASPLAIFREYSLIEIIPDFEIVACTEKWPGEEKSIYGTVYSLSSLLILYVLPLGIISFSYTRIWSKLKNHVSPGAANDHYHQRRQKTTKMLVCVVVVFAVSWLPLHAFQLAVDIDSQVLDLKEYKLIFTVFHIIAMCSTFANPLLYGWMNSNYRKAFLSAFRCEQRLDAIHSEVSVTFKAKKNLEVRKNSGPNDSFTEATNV
Source text: as §1

[22] = target: Opioid and opioid-like delta2 (DOP) (Homo sapiens, UniProt P41143); test: CEREP binding profile: delta2; details: 10 μM
Source text: as §1

[23] = target: Opioid and opioid-like kappa (KOP) (Rattus norvegicus, UniProt P34975); test: CEREP binding profile: kappa; details: 10 μM
Source text: as §1

[24] = target: Opioid and opioid-like mu (MOP) (Homo sapiens, UniProt P35372); test: CEREP binding profile: mu; details: 10 μM
Source text: as §1

[25] = target: Prostanoid EP2 (Homo sapiens, UniProt P43116); test: CEREP binding profile: EP2
Chain of Prostanoid EP2 (P43116 whole entry): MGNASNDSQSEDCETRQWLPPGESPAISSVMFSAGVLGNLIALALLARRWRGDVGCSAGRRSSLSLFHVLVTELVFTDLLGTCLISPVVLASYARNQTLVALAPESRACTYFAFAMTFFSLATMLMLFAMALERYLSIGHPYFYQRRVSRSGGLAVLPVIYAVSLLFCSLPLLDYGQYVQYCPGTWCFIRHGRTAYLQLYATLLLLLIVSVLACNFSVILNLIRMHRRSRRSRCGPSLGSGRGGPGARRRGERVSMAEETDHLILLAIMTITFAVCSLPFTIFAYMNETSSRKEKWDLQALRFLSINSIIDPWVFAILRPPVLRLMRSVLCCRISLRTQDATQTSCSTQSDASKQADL
Source text: as §1

[26] = test system: Somatostatin sst; test: CEREP binding profile: sst; details: 10 μM
Source text: as §1

[27] = target: T13, Serotonin 5-HT1B (Rattus norvegicus, UniProt P28564); test: CEREP binding profile: 5-HT1B
T13 construct: CEREP (contract panel)
Source text: as §1

[28] = target: T14, Serotonin 5-HT2C (Homo sapiens, UniProt P28335); test: CEREP binding profile: 5-HT2C
T14 construct: CEREP (contract panel)
Source text: as §1

[29] = target: T15, Serotonin 5-HT6 (Homo sapiens, UniProt P50406); test: CEREP binding profile: 5-HT6
T15 construct: CEREP (contract panel)
T15 sequence (P50406 whole entry): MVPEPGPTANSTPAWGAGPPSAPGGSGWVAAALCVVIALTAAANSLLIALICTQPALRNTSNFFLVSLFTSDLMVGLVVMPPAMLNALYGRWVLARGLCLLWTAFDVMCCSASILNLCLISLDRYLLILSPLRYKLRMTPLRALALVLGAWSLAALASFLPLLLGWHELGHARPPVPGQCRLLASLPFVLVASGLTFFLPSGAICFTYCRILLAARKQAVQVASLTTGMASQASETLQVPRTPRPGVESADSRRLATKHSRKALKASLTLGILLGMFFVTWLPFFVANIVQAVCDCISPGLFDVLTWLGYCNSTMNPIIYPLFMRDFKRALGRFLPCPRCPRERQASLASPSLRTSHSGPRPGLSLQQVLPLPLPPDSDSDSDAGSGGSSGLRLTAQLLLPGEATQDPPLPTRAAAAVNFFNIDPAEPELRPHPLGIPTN
Source text: as §1

[30] = target: T16, Serotonin 5-HT7 (Homo sapiens, UniProt P34969); test: CEREP binding profile: 5-HT7
T16 construct: CEREP (contract panel)
Source text: as §1

[31] = test system: K+ channels SKCa; test: CEREP binding profile: SKCa; details: 10 μM
Source text: as §1

[32] = test system: Na+ channels Na+-site 2; test: CEREP binding profile: Na+-site 2; details: 10 μM
Source text: as §1

[33] = target: T17, Transporters Dopamine (Homo sapiens, UniProt Q01959); test: CEREP binding profile: dopamine transporter
T17 construct: CEREP (contract panel)
Source text: as §1

[34] = target: T18, Benzodiazepine BZD (periph) (Rattus norvegicus, UniProt P16257); test: CEREP binding profile: BZD (periph)
T18 construct: CEREP (contract panel)
Source text: as §1

[35] = test system: Cytokines TNF-alpha; test: CEREP binding profile: TNF-alpha; details: 10 μM
Source text: as §1

[36] = test system: GABA; test: CEREP binding profile: GABA; details: 10 μM
Source text: as §1

[37] = test system: GABA Cl- channel; test: CEREP binding profile: Cl- channel; details: 10 μM
Source text: as §1

[38] = test system: Glutamate PCP; test: CEREP binding profile: PCP; details: 10 μM
Source text: as §1

[39] = test system: Growth factors PDGF; test: CEREP binding profile: PDGF; details: 10 μM
Source text: as §1

[40] = test system: Purinergic channels P2X; test: CEREP binding profile: P2X; details: 10 μM
Source text: as §1

[41] = target: T19, Serotonin 5-HT3 (Homo sapiens, UniProt P46098); test: CEREP binding profile: 5-HT3
T19 construct: CEREP
T19 sequence (P46098 24-478): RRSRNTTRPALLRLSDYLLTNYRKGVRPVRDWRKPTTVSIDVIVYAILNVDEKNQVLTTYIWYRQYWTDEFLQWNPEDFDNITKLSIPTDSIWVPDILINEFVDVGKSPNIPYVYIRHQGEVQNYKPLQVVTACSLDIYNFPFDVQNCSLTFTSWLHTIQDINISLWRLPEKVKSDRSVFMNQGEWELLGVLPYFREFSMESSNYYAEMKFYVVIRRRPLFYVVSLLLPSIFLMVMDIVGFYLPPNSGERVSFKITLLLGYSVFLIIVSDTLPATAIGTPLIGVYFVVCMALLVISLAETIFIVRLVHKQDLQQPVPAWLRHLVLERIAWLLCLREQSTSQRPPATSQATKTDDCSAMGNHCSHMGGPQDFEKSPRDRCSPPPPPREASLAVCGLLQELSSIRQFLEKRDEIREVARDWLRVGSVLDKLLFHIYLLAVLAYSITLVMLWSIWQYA
Source text: as §1

[42] = test system: Steroid nuclear receptors ER; test: Binding: ER; details: 10 μM
Source text: as §1

[43] = target: T20, Non-steroid nuclear receptors PPAR gamma (Homo sapiens, UniProt P37231); test: CEREP binding profile: PPAR gamma
T20 construct: CEREP
Source text: as §1

[44] = target: PXR (non-steroid nuclear receptor) (Homo sapiens, UniProt O75469); test: in vitro
Chain of PXR (non-steroid nuclear receptor) (O75469 whole entry): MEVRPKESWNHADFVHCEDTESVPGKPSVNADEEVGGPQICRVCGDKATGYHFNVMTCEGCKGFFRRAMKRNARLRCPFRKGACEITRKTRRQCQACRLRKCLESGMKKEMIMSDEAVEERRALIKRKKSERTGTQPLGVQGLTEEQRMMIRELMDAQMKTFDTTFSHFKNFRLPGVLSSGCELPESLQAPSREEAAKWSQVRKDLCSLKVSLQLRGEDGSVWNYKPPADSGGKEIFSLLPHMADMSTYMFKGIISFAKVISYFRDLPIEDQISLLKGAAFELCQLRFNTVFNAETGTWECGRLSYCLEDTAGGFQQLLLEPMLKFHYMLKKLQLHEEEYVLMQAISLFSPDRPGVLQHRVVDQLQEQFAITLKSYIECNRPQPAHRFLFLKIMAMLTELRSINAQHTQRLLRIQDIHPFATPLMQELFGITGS
Source text: as §1

Compound: CC(=O)[C@@]1(C)CC[C@H]2[C@@H]3CC=C4C[C@@H](OCc5ccccc5)CC[C@]4(C)[C@H]3CC[C@@]21C [3Bn17MeP, 3β-benzyloxy, 17α-methyl-pregn-5-en-20-one]
- % Inhibition [1]: 5%
- % Inhibition [2]: −1%
- % Inhibition ([3]; 10 μM): 7%
- inhibition at 10 µM [4]: -13%
- inhibition at 10 µM [5]: -5%
- % Inhibition [6]: −6%
- inhibition at 10 µM [7]: 0%
- inhibition at 10 µM [8]: -15%
- inhibition at 10 µM [9]: 0%
- inhibition at 10 µM [10]: -13%
- inhibition at 10 µM [11]: 2%
- inhibition at 10 µM [12]: -21%
- % Inhibition ([13]; 10 μM): −10%
- % Inhibition ([14]; 10 μM): −2%
- inhibition at 10 µM [15]: 1%
- inhibition at 10 µM [16]: -26%
- inhibition at 10 µM [17]: -10%
- inhibition at 10 µM [18]: -17%
- inhibition at 10 µM [19]: 0%
- inhibition at 10 µM [20]: -12%
- inhibition at 10 µM [21]: -6%
- % Inhibition [22]: −3%
- % Inhibition [23]: −17%
- % Inhibition [24]: −4%
- inhibition at 10 µM [25]: 19%
- % Inhibition [26]: −6%
- % Inhibition ([27]; 10 μM): −15%
- % Inhibition ([28]; 10 μM): 10%
- % Inhibition ([29]; 10 μM): −1%
- % Inhibition ([30]; 10 μM): 8%
- % Inhibition [31]: −3%
- % Inhibition [32]: −12%
- inhibition at 10 µM [33]: -23%
- inhibition at 10 µM [34]: 1%
- Inhibition % [35]: 4%
- Inhibition % [36]: 10%
- Inhibition % [37]: 1%
- Inhibition % [38]: 5%
- Inhibition % [39]: −13%
- Inhibition % [40]: 8%
- Inhibition % ([41]; 10 μM): 4%
- Inhibition % [42]: −5%
- inhibition at 10 µM [43]: -12%
- inhibition at 10 µM [44]: -8%

Compound: CC(=O)[C@H]1CC[C@H]2[C@@H]3CC=C4C[C@@H](O)CC[C@]4(C)[C@H]3CC[C@]12C [pregnenolone, reference compound]
- % Inhibition [1]: 1%
- % Inhibition [2]: −2%
- inhibition at 10 µM [3]: 4%
- inhibition at 10 µM [4]: -28%
- inhibition at 10 µM [5]: -18%
- % Inhibition [6]: −18%
- inhibition at 10 µM [7]: -9%
- inhibition at 10 µM [8]: -12%
- inhibition at 10 µM [9]: -10%
- inhibition at 10 µM [10]: -10%
- inhibition at 10 µM [11]: -30%
- inhibition at 10 µM [12]: -38%
- inhibition at 10 µM [13]: -8%
- inhibition at 10 µM [14]: 11%
- inhibition at 10 µM [15]: -3%
- inhibition at 10 µM [16]: -16%
- inhibition at 10 µM [17]: -15%
- inhibition at 10 µM ([18]; M2, 10 μM, read-out: % Inhibition): -4%
- inhibition at 10 µM ([19]; M5, 10 μM, read-out: % Inhibition): 8%
- inhibition at 10 µM [20]: -1%
- inhibition at 10 µM [21]: -9%
- % Inhibition [22]: 9%
- % Inhibition [23]: 38%
- % Inhibition [24]: −5%
- inhibition at 10 µM [25]: 24%
- % Inhibition [26]: −8%
- inhibition at 10 µM [27]: -28%
- inhibition at 10 µM [28]: -9%
- inhibition at 10 µM [29]: 5%
- inhibition at 10 µM [30]: 11%
- % Inhibition [31]: −8%
- % Inhibition [32]: 23%
- inhibition at 10 µM ([33]; dopamine transporter, 10 μM, read-out: % Inhibition): -12%
- Inhibition % ([34]; BZD (periph), 10 μM): 42%
- inhibition at 10 µM ([34]; BZD (periph), 10 μM, read-out: Inhibition %): > 40%
- Inhibition % [35]: 4%
- Inhibition % [36]: 10%
- Inhibition % [37]: 29%
- Inhibition % [38]: 5%
- Inhibition % [39]: −15%
- Inhibition % [40]: 13%
- inhibition at 10 µM [41]: 6%
- Inhibition % [42]: 26%
- inhibition at 10 µM [43]: 4%
- inhibition at 10 µM ([44]; PXR receptor binding assay (ligand displacement)): 15%
